What is called EC50 is the midpoint of the concentration-response curve. The low end stands for an effect from little substance, the high end for a need for much substance. The Ki is the equilibrium dissociation constant of an inhibitor or competing ligand from its target.

Where a name gives a salt, the structure may show the parent alone. Read-outs that look alike come from different tables or passages of the source.

Assay [1] concerns the target T1, S1P1 (Homo sapiens, UniProt P21453). In words: S1P1 internalization assay in S1P1-U2OS cells (cell imaging). The following applies: U2OS cells expressing S1P1-EGFP, 384-well format. The class given is cell-based. Set-up: host or cells: U2OS (human bone osteosarcoma epithelial cells). On the procedure: Cellular Functional Assays: Internalization of Sphinqosine-1-phosphate Receptor 1 (S1P1) in a Human Cell Line (U2OS) in a 384-Well Format Using a Cell Imaging Analysis.
The S1P1 internalization assay was performed in 384 well plates (Corning 384 black with clear bottom 3712) using S1P1-U2OS cells from BioImage (C039A), a human epithelial cell line (Human Bone Osteosarcoma Epithelial Cells). These cells expressed the human S1P1 Receptor fused to the green fluorescent protein (EGFP). A standard CMV promoter (cytomegalovirus promoter) controls the expression of S1P1-EGFP and continuous expression was maintained by addition of geneticin to the culture medium.
S1P1 Receptor desensitization induced the internalization of the membrane-localized S1P-EGFP fusion protein to endosomes, which can be monitored by cell imaging analysis.
The cells are plated in low serum medium (Dulbecco's Modified Eagle Medium (DMEM) with Glutamax-1 and high glucose, 1% Penicillin/Streptomycin, 1% Fetal Calf Serum (FCS), 0.5 mg/ml Geneticin) overnight.
The next day, S1P1-U2OS cells are incubated in 20 μl serum free medium (DMEM with Glutamax-1 and high glucose, 0.1% of fatty-acid free Bovin Serum Albumin (BSA), 10 mM, N′-2-Hydroxyethylpiperazine-N′-2 ethanesulphonic acid (HEPES) 1M) for 2 hours at 37° C./5% CO2. The cells are then treated with 4 μl compounds/agonists (6×/3% DMSO) for a total volume of 24 μl, and plates are incubated for 1 hour at 37° C./5% CO2.
S1P1-U2OS cells are fixed with 25 μl Paraformaldehyde 8% and stained with Hoechst 33345 dye (1:1000) for 20 minutes.
They were then washed 3 times with Phosphate Buffered Saline (PBS) and plates are sealed. The internalization of the receptor S1P1-EGFP is measured on Cellomics by calculating the “spot count per object” (“object” corresponds to nuclear and “spot” corresponds to S1P1-EGFP receptor). Internalization data were observed thanks to vHCS View and analyzed using Genedata® software.
Target sequence in this assay (P21453 whole entry, the tested form may be a part): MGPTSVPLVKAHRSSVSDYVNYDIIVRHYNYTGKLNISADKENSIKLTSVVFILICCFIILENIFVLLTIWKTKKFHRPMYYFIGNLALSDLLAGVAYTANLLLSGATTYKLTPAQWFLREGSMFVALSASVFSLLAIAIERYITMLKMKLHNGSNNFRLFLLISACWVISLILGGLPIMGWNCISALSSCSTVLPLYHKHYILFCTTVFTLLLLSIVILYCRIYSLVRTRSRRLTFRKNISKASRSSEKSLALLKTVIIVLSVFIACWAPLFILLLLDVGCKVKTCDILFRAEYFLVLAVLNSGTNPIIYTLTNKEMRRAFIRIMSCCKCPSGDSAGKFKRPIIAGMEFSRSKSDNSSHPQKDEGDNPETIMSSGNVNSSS

For assay [2], the target named is T1, S1P1. The experiment in a line: Receptor binding assay, [33P]sphingosine 1-phosphate competition, membranes of CHO cells expressing S1P1. On the procedure: (§1) Membranes were prepared from CHO cells expressing S1P1 or S1P3 for use in ligand binding studies. Cells were suspended in 50 mM TRIS, pH 7.4, 2 mM EDTA, 250 mM Sucrose (buffer A) and 1× Complete protease inhibitor cocktail (Roche), and disrupted at 4° C. by N2 decompression using a cell disruption bomb (Parr Instrument). Following centrifugation at 1000 RPM for 10 min at 4° C., the supernatant was diluted (2×) in buffer A and centrifuged again at 19000 RPM for 75 min at 4° C. The pellet was then suspended in 10 mM HEPES, pH 7.4, 1 mM EDTA, 250 mM Sucrose (Buffer B), and 1× Complete EDTA-free protease inhibitor cocktail and homogenized using a potter. Membranes were flash frozen in liquid N2 and stored at −80° C.
(§2) [33P]sphingosine 1-phosphate (3000 Ci/mmol; American Radiolabeled Chemicals, Inc.) was added to test compounds in 20% DMSO by competition. Membranes and WGA SPA beads (GE Healthcare) were added to give a final volume of 100 μl in 96-well plates or 50 μl in 384-well plates with assay concentrations of 30 pM or 15 pM [33P]sphingosine 1-phosphate (respectively for S1P1 or S1P3), 50 mM HEPES, pH 7.5, 5 mM MgCl2, 100 mM NaCl, 0.4% fatty acid-free BSA, 1-5 μg/well of proteins in 96-well plates vs 0.6-1 μg/well of proteins in 384-well plates and 100 μg/well of WGA SPA beads in 96-well plates vs 75 μg/well of WGA SPA beads in 384-well plates. Binding was performed for 60 min at RT on a shaker and bound radioactivity was measured on a PerkinElmer 1450 MicroBeta counter. Triplicate samples were averaged and normalized as percentage of inhibition relative to total binding (only DMSO in well) and non specific binding (1000-fold excess of unlabeled S1P). Binding data were analyzed using the GraphPad Prism program or Genedata software.
(§3) The “potency” or the “activity” of the compounds is determined by the Ki values as evaluated in one of the above described binding assay, 96 or 384 well plates.
Target sequence in this assay (P21453 whole entry, species assumed, the tested form may be a part): as the sequence (P21453 whole entry, the tested form may be a part) above

The next assay has as its target S1P3 (Homo sapiens, UniProt Q99500). In words: Receptor binding assay, [33P]sphingosine 1-phosphate competition, membranes of CHO cells expressing S1P3. The following applies: 96 well plate; read-out: S1P3 Binding Ki [M] (96 well plate). As for the experimental part: as §1, §2, §3
Where [3] appears, read: 384 well plate, read-out: S1P1 Binding Ki [M] (384 well plate).
Where [4] appears, read: 96 well plate, read-out: S1P1 Binding Ki [M] (96 well plate).

Chain of S1P3 (Q99500 whole entry, species assumed): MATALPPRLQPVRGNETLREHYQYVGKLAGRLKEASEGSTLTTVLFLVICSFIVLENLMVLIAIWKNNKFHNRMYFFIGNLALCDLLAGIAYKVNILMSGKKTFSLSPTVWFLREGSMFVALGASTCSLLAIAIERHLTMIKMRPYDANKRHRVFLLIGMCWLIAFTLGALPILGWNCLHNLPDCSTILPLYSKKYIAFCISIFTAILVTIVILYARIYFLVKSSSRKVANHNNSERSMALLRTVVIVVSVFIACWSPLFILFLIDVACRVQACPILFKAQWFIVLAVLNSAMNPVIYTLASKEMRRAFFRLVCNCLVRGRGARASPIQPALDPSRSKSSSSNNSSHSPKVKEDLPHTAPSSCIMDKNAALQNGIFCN

On S1P1 [1], `Cc1cc(-c2nc(-c3ccc([C@H](C)N[C@@H](C)C(=O)O)cc3)no2)ccc1-c1ccccc1C(F)(F)F` (racemic) [Example 24, N-[(1S)-1-(4-{5-[2-methyl-2′-(trifluoromethyl)biphenyl-4-yl]-1,2,4-oxadiazol-3-yl}phenyl)ethyl]-L-alanine, hydrochloride salt and N-[(1R)-1-(4-{5-[2-methyl-2′-(trifluoromethyl)biphenyl-4-yl]-1,2,4-oxadiazol-3-yl}phenyl)ethyl]-D-alanine, hydrochloride salt] had an EC50 of 89.4 nM. Further, the Ki at S1P1 [2] (setting [3]) came to 4.29e-09 M.

Regarding `Cc1ccccc1-c1ccc(-c2nc(-c3ccc([C@@H](CO)N[C@H](C)C(=O)O)cc3)no2)cc1C(F)(F)F` (single isomer, unassigned) [Example 99, hydrochloride salt], the Ki at S1P3 is 2.3e-06 M; on S1P1 [2] (setting [4]), 8.85e-10 M.

Turning to `Cc1ccccc1-c1ccc(-c2nc(-c3ccc([C@H](CO)N[C@H](C)C(=O)O)cc3)no2)cc1C(F)(F)F` (single isomer, unassigned) [Example 100, hydrochloride salt], the results for the Ki on S1P3 and on S1P1 [2] (setting [4]) were 2.45e-06 M and 1.09e-09 M, respectively.

For `CC[C@H](N[C@H](C)c1ccc(-c2noc(-c3ccc(-c4ccccc4C)c(C(F)(F)F)c3)n2)cc1)C(=O)O` [Example 10, (2S)-2-{[(1R)-1-(4-{5-[2′-methyl-2-(trifluoromethyl)biphenyl-4-yl]-1,2,4-oxadiazol-3-yl}phenyl)ethyl]amino}butanoic acid, hydrochloride salt], the EC50 on S1P1 [1] amounted to 187 nM. Besides, at S1P1 [2] (setting [3]), the Ki is 1.94e-08 M.

As for `Cc1cc(-c2nc(-c3cccc(C(C)N(C)[C@@H](C)C(=O)O)c3)no2)ccc1-c1ccccc1C(F)(F)F` (stereo partly shown) [Example 28, N-methyl-N-[1-(3-{5-[2-methyl-2′-(trifluoromethyl)biphenyl-4-yl]-1,2,4-oxadiazol-3-yl}phenyl)ethyl]alanine, hydrochloride salt], the response on S1P1 [1] was half-maximal at 5170 nM (EC50). Moreover, at S1P1 [2] (setting [3]), the Ki was 1.38e-08 M.

In the case of `Cc1cc(-c2nc(-c3cccc(C(C)N(C)CC(=O)O)c3)no2)ccc1-c1ccccc1C(F)(F)F` (stereo not shown) [Example 30, N-methyl-N-[1-(3-{5-[2-methyl-2′-(trifluoromethyl)biphenyl-4-yl]-1,2,4-oxadiazol-3-yl}phenyl)ethyl]glycine, hydrochloride salt], at S1P1 [1], the EC50 was found to be 410 nM. The Ki at S1P1 [2] (setting [3]) turned out to be 1.43e-08 M.

Take `Cc1cc(-c2nc(-c3ccc([C@H](C)N(C)CC(=O)O)cc3)no2)ccc1-c1ccccc1C(F)(F)F` [Example 33, N-methyl-N-[(1S)-1-(4-{5-[2-methyl-2′-(trifluoromethyl)biphenyl-4-yl]-1,2,4-oxadiazol-3-yl}phenyl)ethyl]glycine, hydrochloride salt]: the response on S1P1 [1] was half-maximal at 91 nM (EC50). Further, the Ki at S1P1 [2] (setting [3]) was 5.77e-09 M.

`COCc1cc(-c2nc(-c3ccc([C@@H](C)N(C)CC(=O)O)cc3)no2)ccc1-c1ccccc1C` [Example 97, N-[(1R)-1-(4-{5-[2-(methoxymethyl)-2′-methylbiphenyl-4-yl]-1,2,4-oxadiazol-3-yl}phenyl)ethyl]-N-methylglycine, hydrochloride salt]: the values for the Ki at S1P3 and on S1P1 [2] (setting [4]) were 4.8e-07 M and 7.8e-10 M, respectively.

On to `COCc1cc(-c2nc(-c3ccc([C@H](C)N(C)CC(=O)O)cc3)no2)ccc1-c1ccccc1C` [Example 98, N-[(1S)-1-(4-{5-[2-(methoxymethyl)-2′-methylbiphenyl-4-yl]-1,2,4-oxadiazol-3-yl}phenyl)ethyl]-N-methylglycine, hydrochloride salt], for which the Ki was ≥ 2e-05 M at S1P3 and 6.2e-10 M at S1P1 [2] (setting [4]).

As for `Cc1ccccc1-c1ccc(-c2nc(-c3ccc([C@@H](C)N)cc3)no2)cc1C(F)(F)F` [Example M1], the results for the Ki on S1P3 and at S1P1 [2] (setting [4]) were 1.45e-06 M and 4.05e-10 M, respectively.

On to `CNCc1cccc(-c2noc(-c3ccc(-c4ccccc4C)c(C(F)(F)F)c3)n2)c1` [Example M2], for which the Ki on S1P3 was determined as 2.4e-08 M; on S1P1 [2] (setting [4]) it was 5.6e-10 M.

(Values after patent US9029405B2, “5-(biphenyl-4-yl)-3-phenyl-1,2,4-oxadiazolyl derivatives as ligands on the sphingosine 1-phosphate(SIP)receptors” (Merck Serono S.A., priority 2010, dated 2015).)
